ChEMBL document CHEMBL5370690, “Atypical N-Alkyl to N-Noralkoxy Switch in a Dual cSRC/BCR-ABL1 Kinase Inhibitor Improves Drug Efflux and hERG Affinity” (ACS Med Chem Lett, 2023)

Assays:
[1] = Mutagenicity in Salmonella typhimurium TA1535 incubated for 96 hrs by Ames test; assay type: toxicity; conditions: salmonella enterica subsp. enterica serovar typhimurium
[2] = Mutagenicity in Salmonella typhimurium TA98 incubated for 96 hrs by Ames test; assay type: toxicity; conditions: salmonella enterica subsp. enterica serovar typhimurium
[3] = Mutagenicity in Salmonella typhimurium TA100 incubated for 96 hrs by Ames test; assay type: toxicity; conditions: salmonella enterica subsp. enterica serovar typhimurium
[4] = Mutagenicity in Salmonella typhimurium TA1537 incubated for 96 hrs by Ames test; assay type: toxicity; conditions: salmonella enterica subsp. enterica serovar typhimurium
KU812 cell line = test: Antiproliferative activity against human KU812 cell line assessed as cell growth inhibition incubated for 72 hrs by Cell Titer-Glo Luminescent assay; assay type: functional, cell-based; conditions: KU812, 72 h
MEG-01 = test: Antiproliferative activity against human MEG-01 cells assessed as cell growth inhibition incubated for 72 hrs by Cell Titer-Glo Luminescent assay; assay type: functional, cell-based; conditions: MEG-01, 72 h
SUP-B15 = test: Antiproliferative activity against human SUP-B15 cells assessed as cell growth inhibition incubated for 72 hrs by Cell Titer-Glo Luminescent assay; assay type: functional, cell-based; conditions: SUP-B15, 72 h

COc1cc(Nc2c(C#N)cnc3cc(OCCON4CCN(C)CC4)c(OC)cc23)c(Cl)cc1Cl
Activity [1]: Non-Toxic
Activity [2]: Non-Toxic
Activity [3]: Non-Toxic
Activity [4]: Non-Toxic

COc1cc(Nc2c(C#N)cnc3cc(OCCCN4CCN(C)CC4)c(OC)cc23)c(Cl)cc1Cl [BOSUTINIB]
IC50 (KU812 cell line): 3.6 nM
IC50 (MEG-01): 13 nM
IC50 (SUP-B15): 210 nM
